Literature values as cited in patent US20140106026A1, “ARTICLE AND METHOD FOR TREATING, PREVENTING AND AMELIORATING ALCOHOL-INDUCED WERNICKE-KORSAKOFF SYNDROME” (priority 2012, published 2014).
Read-outs that look alike come from different tables or passages of the source.

How the values were obtained:
[1] = not given; remark: listed apart in the source
[2] = oral intake
[3] = not given; remark: listed apart in the source

Cc1ncc(C[n+]2csc(CCO)c2C)c(N)n1 [Thiamine]
stability (at acidic pH): stable | stability (in alkaline solutions): unstable | stability towards sulfite (sulfite as contained in wine and cordials): degrades | solubility ([1]; in acetone, ether, chloroform, and benzene): practically insoluble | solubility ([1]; in water, methanol, and glycerol): soluble | intake above which decline in thiamine absorption occurs [2]: above 5 mg | half-life, in vivo [3]: approximately two
